Data from patent publication US12723063B2, “GIPR-agonist compounds” (Eli Lilly and Company, priority 2019, dated 2026).
pKi: −log10 of the molar value. *1 amine or outer side, *2 acyl side, *3 side chain or, on linkers, in order; H or OH if unused. Where a SMILES comes first, the peptide text is derived from it. Side-chain parts run from the residue outwards. [ ]: non-standard residue; d: D form. The star is where a group is joined. C20 diacid = O=C(O)CCCCCCCCCCCCCCCCCCC(=O)*; γGlu = O=C(O)[C@H](CCC(=O)[*:2])N[*:1]; αMeF = C[C@](N)(Cc1ccccc1)C(=O)O; 4Pal = N[C@@H](Cc1ccncc1)C(=O)O; αMeL = CC(C)C[C@](C)(N)C(=O)O; AEEA = NCCOCCOCC(=O)O; Aib = CC(C)(N)C(=O)O

Key:
[1] = target: T1, human GcgR (Homo sapiens, UniProt P47871); assay: [125I]-Glucagon binding, SPA with WGA beads, 0.1% bacitracin; conditions: geometric mean, read-out: hGcgR Ki
T1 construct: expressed in transfected cells; crude membranes
T1 sequence (P47871 26-477): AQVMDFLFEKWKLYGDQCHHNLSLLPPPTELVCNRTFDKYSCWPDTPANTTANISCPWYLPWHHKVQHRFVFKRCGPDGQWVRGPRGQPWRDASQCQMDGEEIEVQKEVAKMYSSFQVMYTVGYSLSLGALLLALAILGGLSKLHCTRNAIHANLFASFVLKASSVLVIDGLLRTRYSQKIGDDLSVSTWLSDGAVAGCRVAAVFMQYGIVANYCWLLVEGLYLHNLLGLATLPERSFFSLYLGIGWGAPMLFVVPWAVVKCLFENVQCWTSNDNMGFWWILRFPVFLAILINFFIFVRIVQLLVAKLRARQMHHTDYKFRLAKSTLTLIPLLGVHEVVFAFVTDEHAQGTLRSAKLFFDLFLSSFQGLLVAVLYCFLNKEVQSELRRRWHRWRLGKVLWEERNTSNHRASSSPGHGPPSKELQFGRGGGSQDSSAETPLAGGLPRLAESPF
Outline: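 SPA competition binding with WGA beads on crude membranes from HEK293 cells stably expressing hGcgR. Buffer: 25 mM HEPES pH 7.4, 2.5 mM CaCl2, 1 mM MgCl2, 0.1% bacitracin, 0.003% Tween-20; 10-point 3-fold dilutions, NSB with 1 μM Gcg.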

[2] = target: T2, human GLP-1R (Homo sapiens, UniProt P43220); assay: [125I]-GLP-1 binding, SPA with WGA beads, 0.1% bacitracin; conditions: geometric mean, read-out: hGLP1R Ki
T2 construct: expressed in transfected cells; crude membranes
T2 sequence (P43220 24-463): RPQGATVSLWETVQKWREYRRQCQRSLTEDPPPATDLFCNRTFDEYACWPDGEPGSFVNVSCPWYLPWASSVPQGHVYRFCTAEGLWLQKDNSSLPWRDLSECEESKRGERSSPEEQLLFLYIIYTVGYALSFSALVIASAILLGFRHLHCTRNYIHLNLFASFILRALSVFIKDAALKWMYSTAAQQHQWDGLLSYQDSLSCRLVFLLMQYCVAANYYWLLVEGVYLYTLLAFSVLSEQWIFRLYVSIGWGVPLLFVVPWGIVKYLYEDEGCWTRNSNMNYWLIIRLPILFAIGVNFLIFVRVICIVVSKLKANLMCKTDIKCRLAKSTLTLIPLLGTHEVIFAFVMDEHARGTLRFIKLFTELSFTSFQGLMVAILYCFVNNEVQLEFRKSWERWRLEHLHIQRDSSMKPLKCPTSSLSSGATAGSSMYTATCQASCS
Outline: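 Binding buffer was 25 mM HEPES pH 7.4 with 2.5 mM CaCl2, 1 mM MgCl2, 0.1% (w/v) bacitracin, 0.003% Tween-20 and EDTA-free protease inhibitors. Four-parameter regression gave IC50, converted to Ki (geometric mean, SEM, n independent days).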

[3] = target: T3, human GLP-1 receptor (GLP-1R) (Homo sapiens, UniProt P43220); assay: cAMP functional assay (HTRF) in HEK293 cells in presence of 0.1% casein; type: cell-based; conditions: HEK293 cells expressing human GLP-1R, geometric mean, read-out: hGLP1R cAMP Rel EC50 nM (SEM, n)
T3 construct: expressed in transfected cells; host or cells: HEK293
T3 sequence (P43220 24-463): as above

| SMILES | pKi [1] | pKi [2] | EC50 [3] [nM] |
| --- | --- | --- | --- |
| CC[C@H](C)[C@H](NC(=O)[C@H](CO)NC(=O)[C@H](Cc1ccc(O)cc1)NC(=O)[C@H](CC(=O)O)NC(=O)[C@H](CO)NC(=O)[C@@H](NC(=O)[C@](C)(Cc1ccccc1)NC(=O)[C@@H](NC(=O)CNC(=O)[C@H](CCC(=O)O)NC(=O)C(C)(C)NC(=O)[C@@H](N)Cc1ccc(O)cc1)[C@@H](C)O)[C@@H](C)CC)C(=O)N[C@@H](C)C(=O)N[C@@H](CC(C)C)C(=O)N[C@@H](CC(=O)O)C(=O)N[C@@H](CCCCN)C(=O)N[C@@H](CCCCNC(=O)COCCOCCNC(=O)COCCOCCNC(=O)CC[C@H](NC(=O)CCCCCCCCCCCCCCCCCCC(=O)O)C(=O)O)C(=O)N[C@@H](Cc1c[nH]cn1)C(=O)N[C@@H](CCC(N)=O)C(=O)NC(C)(C)C(=O)N[C@@H](CC(=O)O)C(=O)N[C@@H](Cc1ccccc1)C(=O)N[C@H](C(=O)N[C@@H](CCC(=O)O)C(=O)N[C@@H](Cc1ccncc1)C(=O)N[C@@H](CC(C)C)C(=O)N[C@@H](CC(C)C)C(=O)N[C@@H](CCC(=O)O)C(=O)NCC(=O)NCC(=O)N1CCC[C@H]1C(=O)N[C@@H](CO)C(=O)N[C@@H](CO)C(=O)NCC(=O)N[C@@H](C)C(=O)N1CCC[C@H]1C(=O)N1CCC[C@H]1C(=O)N1CCC[C@H]1C(=O)N[C@@H](CO)C(N)=O)C(C)C [Example 44] (H-Y[Aib]EGT[αMeF]ISDYSIALDKK([AEEA-AEEA-γGlu-C20 diacid])HQ[Aib]DFVE[4Pal]LLEGGPSSGAPPPS-NH2) | 7.30 | 6.68 | 1180 |
| CC[C@H](C)[C@H](NC(=O)[C@H](Cc1ccccc1)NC(=O)[C@@H](NC(=O)CNC(=O)[C@H](CCC(=O)O)NC(=O)C(C)(C)NC(=O)[C@@H](N)Cc1ccc(O)cc1)[C@@H](C)O)C(=O)N[C@@H](CO)C(=O)N[C@@H](CC(=O)O)C(=O)N[C@@H](Cc1ccc(O)cc1)C(=O)N[C@@H](CO)C(=O)N[C@H](C(=O)N[C@@](C)(CC(C)C)C(=O)N[C@@H](CC(C)C)C(=O)N[C@@H](CC(=O)O)C(=O)N[C@@H](CCCCN)C(=O)N[C@@H](CCCCNC(=O)COCCOCCNC(=O)COCCOCCNC(=O)CC[C@H](NC(=O)CCCCCCCCCCCCCCCCCCC(=O)O)C(=O)O)C(=O)N[C@@H](Cc1c[nH]cn1)C(=O)N[C@@H](CCC(N)=O)C(=O)NC(C)(C)C(=O)N[C@@H](CC(=O)O)C(=O)N[C@@H](Cc1ccccc1)C(=O)N[C@H](C(=O)N[C@@H](CCC(=O)O)C(=O)N[C@@H](Cc1ccncc1)C(=O)N[C@@H](CC(C)C)C(=O)N[C@@H](CC(C)C)C(=O)N[C@@H](CCC(=O)O)C(=O)N[C@H](C(=O)NCC(=O)N1CCC[C@H]1C(=O)N[C@@H](CO)C(=O)N[C@@H](CO)C(=O)NCC(=O)N[C@@H](C)C(=O)N1CCC[C@H]1C(=O)N1CCC[C@H]1C(=O)N1CCC[C@H]1C(=O)N[C@@H](CO)C(N)=O)[C@@H](C)O)C(C)C)[C@@H](C)CC [Example 45] (H-Y[Aib]EGTFISDYSI[αMeL]LDKK([AEEA-AEEA-γGlu-C20 diacid])HQ[Aib]DFVE[4Pal]LLETGPSSGAPPPS-NH2) | 6.18 | < 6.04 | > 5000 |
| CC[C@H](C)[C@H](NC(=O)[C@H](Cc1ccccc1)NC(=O)[C@@H](NC(=O)CNC(=O)[C@H](CCC(=O)O)NC(=O)C(C)(C)NC(=O)[C@@H](N)Cc1ccc(O)cc1)[C@@H](C)O)C(=O)N[C@@H](CO)C(=O)N[C@@H](CC(=O)O)C(=O)N[C@@H](Cc1ccc(O)cc1)C(=O)N[C@@H](CO)C(=O)N[C@H](C(=O)N[C@@](C)(CC(C)C)C(=O)N[C@@H](CC(C)C)C(=O)N[C@@H](CC(=O)O)C(=O)N[C@@H](CCCCN)C(=O)N[C@@H](CCCCNC(=O)COCCOCCNC(=O)COCCOCCNC(=O)CC[C@H](NC(=O)CCCCCCCCCCCCCCCCCCC(=O)O)C(=O)O)C(=O)N[C@@H](Cc1c[nH]cn1)C(=O)N[C@@H](CCC(N)=O)C(=O)NC(C)(C)C(=O)N[C@@H](CC(=O)O)C(=O)N[C@@H](Cc1ccccc1)C(=O)N[C@H](C(=O)N[C@@H](CCC(=O)O)C(=O)N[C@@H](Cc1ccncc1)C(=O)N[C@@H](CC(C)C)C(=O)N[C@@H](CC(C)C)C(=O)N[C@@H](CCC(=O)O)C(=O)N[C@@H](CCC(N)=O)C(=O)NCC(=O)N1CCC[C@H]1C(=O)N[C@@H](CO)C(=O)N[C@@H](CO)C(=O)NCC(=O)N[C@@H](C)C(=O)N1CCC[C@H]1C(=O)N1CCC[C@H]1C(=O)N1CCC[C@H]1C(=O)N[C@@H](CO)C(N)=O)C(C)C)[C@@H](C)CC [Example 46] (H-Y[Aib]EGTFISDYSI[αMeL]LDKK([AEEA-AEEA-γGlu-C20 diacid])HQ[Aib]DFVE[4Pal]LLEQGPSSGAPPPS-NH2) | 6.36 | 6.13 | > 5000 |
| CC[C@H](C)[C@H](NC(=O)[C@H](Cc1ccccc1)NC(=O)[C@@H](NC(=O)CNC(=O)[C@H](CCC(=O)O)NC(=O)C(C)(C)NC(=O)[C@@H](N)Cc1ccc(O)cc1)[C@@H](C)O)C(=O)N[C@@H](CO)C(=O)N[C@@H](CC(=O)O)C(=O)N[C@@H](Cc1ccc(O)cc1)C(=O)N[C@@H](CO)C(=O)N[C@H](C(=O)N[C@@](C)(CC(C)C)C(=O)N[C@@H](CC(C)C)C(=O)N[C@@H](CC(=O)O)C(=O)N[C@@H](CCCCN)C(=O)N[C@@H](CCCCNC(=O)COCCOCCNC(=O)COCCOCCNC(=O)CC[C@H](NC(=O)CCCCCCCCCCCCCCCCCCC(=O)O)C(=O)O)C(=O)N[C@@H](Cc1c[nH]cn1)C(=O)N[C@@H](CCC(N)=O)C(=O)NC(C)(C)C(=O)N[C@@H](CC(=O)O)C(=O)N[C@@H](Cc1ccccc1)C(=O)N[C@H](C(=O)N[C@@H](CCC(=O)O)C(=O)N[C@@H](Cc1ccncc1)C(=O)N[C@@H](CC(C)C)C(=O)N[C@@H](CC(C)C)C(=O)N[C@@H](CCC(=O)O)C(=O)NCC(=O)NCC(=O)N1CCC[C@H]1C(=O)N[C@@H](CO)C(=O)N[C@@H](CO)C(=O)NCC(=O)N[C@@H](C)C(=O)N1CCC[C@H]1C(=O)N1CCC[C@H]1C(=O)N1CCC[C@H]1C(=O)N[C@@H](CO)C(N)=O)C(C)C)[C@@H](C)CC [Example 47] (H-Y[Aib]EGTFISDYSI[αMeL]LDKK([AEEA-AEEA-γGlu-C20 diacid])HQ[Aib]DFVE[4Pal]LLEGGPSSGAPPPS-NH2) | 6.76 | 6.49 | > 5000 |
| CC[C@H](C)[C@H](NC(=O)[C@H](Cc1ccccc1)NC(=O)[C@@H](NC(=O)CNC(=O)[C@H](CCC(=O)O)NC(=O)C(C)(C)NC(=O)[C@@H](N)Cc1ccc(O)cc1)[C@@H](C)O)C(=O)N[C@@H](CO)C(=O)N[C@@H](CC(=O)O)C(=O)N[C@@H](Cc1ccc(O)cc1)C(=O)N[C@@H](CO)C(=O)N[C@H](C(=O)N[C@@](C)(CC(C)C)C(=O)N[C@@H](CC(C)C)C(=O)N[C@@H](CC(=O)O)C(=O)N[C@@H](CCCCN)C(=O)N[C@@H](CCCCNC(=O)COCCOCCNC(=O)COCCOCCNC(=O)CC[C@H](NC(=O)CCCCCCCCCCCCCCCCCCC(=O)O)C(=O)O)C(=O)N[C@@H](Cc1c[nH]cn1)C(=O)N[C@@H](CCC(N)=O)C(=O)NC(C)(C)C(=O)N[C@@H](CC(=O)O)C(=O)N[C@@H](Cc1ccccc1)C(=O)N[C@H](C(=O)N[C@@H](CCC(=O)O)C(=O)N[C@@H](Cc1ccncc1)C(=O)N[C@@H](CC(C)C)C(=O)N[C@@H](CC(C)C)C(=O)N[C@@H](C)C(=O)NCC(=O)NCC(=O)N1CCC[C@H]1C(=O)N[C@@H](CO)C(=O)N[C@@H](CO)C(=O)NCC(=O)N[C@@H](C)C(=O)N1CCC[C@H]1C(=O)N1CCC[C@H]1C(=O)N1CCC[C@H]1C(=O)N[C@@H](CO)C(N)=O)C(C)C)[C@@H](C)CC [Example 48] | 6.57 | 6.68 | > 5000 |
| CC[C@H](C)[C@H](NC(=O)[C@H](Cc1ccccc1)NC(=O)[C@@H](NC(=O)CNC(=O)[C@H](CCC(=O)O)NC(=O)C(C)(C)NC(=O)[C@@H](N)Cc1ccc(O)cc1)[C@@H](C)O)C(=O)N[C@@H](CO)C(=O)N[C@@H](CC(=O)O)C(=O)N[C@@H](Cc1ccc(O)cc1)C(=O)N[C@@H](CO)C(=O)N[C@H](C(=O)N[C@@](C)(CC(C)C)C(=O)N[C@@H](CC(C)C)C(=O)N[C@@H](CC(=O)O)C(=O)N[C@@H](CCCCN)C(=O)N[C@@H](CCCCNC(=O)COCCOCCNC(=O)COCCOCCNC(=O)CC[C@H](NC(=O)CCCCCCCCCCCCCCCCC(=O)O)C(=O)O)C(=O)N[C@@H](Cc1c[nH]cn1)C(=O)N[C@@H](CCC(N)=O)C(=O)NC(C)(C)C(=O)N[C@@H](CC(=O)O)C(=O)N[C@@H](Cc1ccccc1)C(=O)N[C@H](C(=O)N[C@@H](CCC(=O)O)C(=O)N[C@@H](Cc1ccncc1)C(=O)N[C@@H](CC(C)C)C(=O)N[C@@H](CC(C)C)C(=O)N[C@@H](C)C(=O)NCC(=O)NCC(=O)N1CCC[C@H]1C(=O)N[C@@H](CO)C(=O)N[C@@H](CO)C(=O)NCC(=O)N[C@@H](C)C(=O)N1CCC[C@H]1C(=O)N1CCC[C@H]1C(=O)N1CCC[C@H]1C(=O)N[C@@H](CO)C(N)=O)C(C)C)[C@@H](C)CC [Example 49] | < 6.02 | 6.22 | > 5000 |
